# From patent US20080269241A1, “BICYCLIC AMINOPROPYL TETRAHYDRO-PYRAZOLO-PYRIDINE MODULATORS OF CATHEPSIN S” (priority 2007, published 2008)
# Target: T1, human cathepsin S (CatS) (Homo sapiens, UniProt P25774)
# T1 construct: made in house; host or cells: baculovirus system (insect cells)
# Test: Recombinant human cathepsin S (CatS) fluorogenic substrate inhibition assay
# Format: biochemical
# Conditions: recombinant human CatS, 10 μM Z-Valine-Valine-Arginine-AMC, pH 5.0; average of results obtained; read-out: CatS IC50
# Experimental: Recombinant human cathepsin S (CatS) was expressed in the baculovirus system and purified in one step with a thiopropyl-sepharose column. […] The assay is run in 150 mM sodium acetate pH 5.0 containing 1.5 mM DTT and 150 mM NaCl. […] Measurements are taken every min for 20 min. The rate is calculated from the slope of the increase in fluorescence and the percent inhibition is calculated from this.
# T1 sequence (P25774 115-331): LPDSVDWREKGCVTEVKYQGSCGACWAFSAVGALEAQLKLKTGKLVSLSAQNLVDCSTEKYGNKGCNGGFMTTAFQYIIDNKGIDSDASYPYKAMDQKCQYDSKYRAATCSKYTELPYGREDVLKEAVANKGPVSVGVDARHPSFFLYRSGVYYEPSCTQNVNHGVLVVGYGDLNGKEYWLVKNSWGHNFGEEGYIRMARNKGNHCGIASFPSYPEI
row,SMILES,IC50
1,"CN1CCN(CC(=O)NCc2cc(-c3nn(CCCN4CCC(N5CCCC5=O)CC4)c4c3CN(S(C)(=O)=O)CC4)ccc2C(F)(F)F)CC1 [Example 180, N-[5-(5-Methanesulfonyl-1-{3-[4-(2-oxo-pyrrolidin-1-yl)-piperidin-1-yl]-propyl}-4,5,6,7-tetrahydro-1H-pyrazolo[4,3-c]pyridin-3-yl)-2-trifluoromethyl-benzyl]-2-(4-methyl-piperazin-1-yl)-acetamide]",3.73 µM
2,"CN(C)CCC(=O)NCc1cc(-c2nn(CCCN3CCC(N4CCCC4=O)CC3)c3c2CN(S(C)(=O)=O)CC3)ccc1C(F)(F)F [Example 181, 3-Dimethylamino-N-[5-(5-methanesulfonyl-1-{3-[4-(2-oxo-pyrrolidin-1-yl)-piperidin-1-yl]-propyl}-4,5,6,7-tetrahydro-1H-pyrazolo[4,3-c]pyridin-3-yl)-2-trifluoromethyl-benzyl]-propionamide]",1.52 µM
3,"CS(=O)(=O)N1CCc2c(c(-c3ccc(C(F)(F)F)c(CNC(=O)CN4CCCC4=O)c3)nn2CCCN2CCC(N3CCCC3=O)CC2)C1 [Example 182, N-[5-(5-Methanesulfonyl-1-{3-[4-(2-oxo-pyrrolidin-1-yl)-piperidin-1-yl]-propyl}-4,5,6,7-tetrahydro-1H-pyrazolo[4,3-c]pyridin-3-yl)-2-trifluoromethyl-benzyl]-2-(2-oxo-pyrrolidin-1-yl)-acetamide]",0.9 µM
4,"CS(=O)(=O)N1CCc2c(c(-c3ccc(C(F)(F)F)c(CNC(=O)CN4CCCC4)c3)nn2CCCN2CCC(N3CCCC3=O)CC2)C1 [Example 183, N-[5-(5-Methanesulfonyl-1-{3-[4-(2-oxo-pyrrolidin-1-yl)-piperidin-1-yl]-propyl}-4,5,6,7-tetrahydro-1H-pyrazolo[4,3-c]pyridin-3-yl)-2-trifluoromethyl-benzyl]-2-pyrrolidin-1-yl-acetamide]",0.8 µM
5,"CS(=O)(=O)N1CCc2c(c(-c3ccc(C(F)(F)F)c(CNC(=O)CN4CCC(O)C4)c3)nn2CCCN2CCC(N3CCCC3=O)CC2)C1 (stereo not shown) [Example 184, 2-(3-Hydroxy-pyrrolidin-1-yl)-N-[5-(5-methanesulfonyl-1-{3-[4-(2-oxo-pyrrolidin-1-yl)-piperidin-1-yl]-propyl}-4,5,6,7-tetrahydro-1H-pyrazolo[4,3-c]pyridin-3-yl)-2-trifluoromethyl-benzyl]-acetamide]",0.82 µM
6,"CS(=O)(=O)N1CCc2c(c(-c3ccc(C(F)(F)F)c(CNC(=O)CO)c3)nn2CCCN2CCC(N3CCCC3=O)CC2)C1 [Example 187, 2-Hydroxy-N-[5-(5-methanesulfonyl-1-{3-[4-(2-oxo-pyrrolidin-1-yl)-piperidin-1-yl]-propyl}-4,5,6,7-tetrahydro-1H-pyrazolo[4,3-c]pyridin-3-yl)-2-trifluoromethyl-benzyl]-acetamide]",1.8 µM
7,"Cn1ccnc1C(=O)NCc1cc(-c2nn(CC(O)CN3CCC(N4CCCC4=O)CC3)c3c2CN(S(C)(=O)=O)CC3)ccc1C(F)(F)F (stereo not shown) [Example 190, 1-Methyl-1H-imidazole-2-carboxylic acid 5-(1-{2-hydroxy-3-[4-(2-oxo-pyrrolidin-1-yl)-piperidin-1-yl]-propyl}-5-methanesulfonyl-4,5,6,7-tetrahydro-1H pyrazolo[4,3-c]pyridin-3-yl)-2-trifluoromethyl-benzylamide]",1.7 µM
8,"CS(=O)(=O)N1CCc2c(c(-c3ccc(Cl)c(NS(=O)(=O)Cc4ccccc4)c3)nn2CCCN2CCN(c3cccc(Cl)c3)CC2)C1 [Example 202, N-[2-Chloro-5-(1-{3-[4-(3-chloro-phenyl)-piperazin-1-yl]-propyl}-5-methanesulfonyl-4,5,6,7-tetrahydro-1H-pyrazolo[4,3-c]pyridin-3-yl)-phenyl]-C-phenyl-methanesulfonamide]",0.68 µM
9,"CS(=O)(=O)N1CCc2c(c(-c3ccc(Cl)c(NS(=O)(=O)/C=C/c4ccccc4)c3)nn2CCCN2CCN(c3cccc(Cl)c3)CC2)C1 [Example 203, 2-Phenyl-ethenesulfonic acid [2-chloro-5-(1-{3-[4-(3-chloro-phenyl)-piperazin-1-yl]-propyl}-5-methanesulfonyl-4,5,6,7-tetrahydro-1H-pyrazolo[4,3-c]pyridin-3-yl)-phenyl]-amide]",0.69 µM
10,"CS(=O)(=O)N1CCc2c(c(-c3ccc(Cl)c(NS(=O)(=O)c4ccccc4)c3)nn2CCCN2CCN(c3cccc(Cl)c3)CC2)C1 [Example 204, N-[2-Chloro-5-(1-{3-[4-(3-chloro-phenyl)-piperazin-1-yl]-propyl}-5-methanesulfonyl-4,5,6,7-tetrahydro-1H-pyrazolo[4,3-c]pyridin-3-yl)-phenyl]-benzenesulfonamide]",0.7 µM
11,"CN(C)Cc1cc(-c2nn(CCCN3CCC(N4CCCC4=O)CC3)c3c2CN(S(C)(=O)=O)CC3)ccc1C(F)(F)F [Example 206, 1-(1-{3-[3-(3-Dimethylaminomethyl-4-trifluoromethyl-phenyl)-5-methanesulfonyl-4,5,6,7-tetrahydro-pyrazolo[4,3-c]pyridin-1-yl]-propyl}-piperidin-4-yl)-pyrrolidin-2-one]",2.52 µM
12,"CS(=O)(=O)N1CCc2c(c(-c3ccc(Cl)c(CNc4ccccc4)c3)nn2CCCN2CCC(N3CCCC3=O)CC2)C1 [Example 207, 1-(1-{3-[3-(4-Chloro-3-phenylaminomethyl-phenyl)-5-methanesulfonyl-4,5,6,7-tetrahydro-pyrazolo[4,3-c]pyridin-1-yl]-propyl}-piperidin-4-yl)-pyrrolidin-2-one]",2.25 µM

# Stronger by IC50, values ahead:
row,IC50,SMILES
1,0.66 µM,"COc1ccc(NCc2cc(-c3nn(CCCN4CCC(N5CCCC5=O)CC4)c4c3CN(S(C)(=O)=O)CC4)ccc2Cl)cc1 [Example 209, 1-{1-[3-(3-{4-Chloro-3-[(4-methoxy-phenylamino)-methyl]-phenyl}-5-methanesulfonyl-4,5,6,7-tetrahydro-pyrazolo[4,3-c]pyridin-1-yl)-propyl]-piperidin-4-yl}-pyrrolidin-2-one]"
2,0.63 µM,"CS(=O)(=O)N1CCc2c(c(-c3ccc(Cl)c(CNc4cccc(-c5ccccc5)c4)c3)nn2CCCN2CCC(N3CCCC3=O)CC2)C1 [Example 210, 1-[1-(3-{3-[3-(Biphenyl-3-ylaminomethyl)-4-chloro-phenyl]-5-methanesulfonyl-4,5,6,7-tetrahydro-pyrazolo[4,3-c]pyridin-1-yl}-propyl)-piperidin-4-yl]-pyrrolidin-2-one]"
3,0.6 µM,"CS(=O)(=O)N1CCc2c(c(-c3ccc(Cl)c(NC(=O)c4ccc(Cl)cc4)c3)nn2CCCN2CCN(c3cccc(Cl)c3)CC2)C1 [Example 200, 4-Chloro-N-[2-chloro-5-(1-{3-[4-(3-chloro-phenyl)-piperazin-1-yl]-propyl}-5-methanesulfonyl-4,5,6,7-tetrahydro-1H-pyrazolo[4,3-c]pyridin-3-yl)-phenyl]-benzamide]"
4,0.59 µM,"CS(=O)(=O)N1CCc2c(c(-c3ccc(C(F)(F)F)c(CNC(=O)Cn4cncn4)c3)nn2CCCN2CCC(N3CCCC3=O)CC2)C1 [Example 188, N-[5-(5-Methanesulfonyl-1-{3-[4-(2-oxo-pyrrolidin-1-yl)-piperidin-1-yl]-propyl}-4,5,6,7-tetrahydro-1H-pyrazolo[4,3-c]pyridin-3-yl)-2-trifluoromethyl-benzyl]-2-[1,2,4]triazol-1-yl-acetamide]"
5,0.58 µM,"CS(=O)(=O)N1CCc2c(c(-c3ccc(Cl)c(NC(=O)c4ccc(C#N)cc4)c3)nn2CCCN2CCN(c3cccc(Cl)c3)CC2)C1 [Example 201, N-[2-Chloro-5-(1-{3-[4-(3-chloro-phenyl)-piperazin-1-yl]-propyl}-5-methanesulfonyl-4,5,6,7-tetrahydro-1H-pyrazolo[4,3-c]pyridin-3-yl)-phenyl]-4-cyano-benzamide]"
6,0.51 µM,"CS(=O)(=O)N1CCc2c(c(-c3ccc(C(F)(F)F)c(CNC(=O)Cc4ccncc4)c3)nn2CCCN2CCC(N3CCCC3=O)CC2)C1 [Example 189, N-[5-(5-Methanesulfonyl-1-{3-[4-(2-oxo-pyrrolidin-1-yl)-piperidin-1-yl]-propyl}-4,5,6,7-tetrahydro-1H-pyrazolo[4,3-c]pyridin-3-yl)-2-trifluoromethyl-benzyl]-2-pyridin-4-yl-acetamide]"
7,0.47 µM,"CN(C)c1ccc(C(=O)Nc2cc(-c3nn(CCCN4CCN(c5cccc(Cl)c5)CC4)c4c3CN(S(C)(=O)=O)CC4)ccc2Cl)cc1 [Example 199, N-[2-Chloro-5-(1-{3-[4-(3-chloro-phenyl)-piperazin-1-yl]-propyl}-5-methanesulfonyl-4,5,6,7-tetrahydro-1H-pyrazolo[4,3-c]pyridin-3-yl)-phenyl]-4-dimethylamino-benzamide]"
8,0.41 µM,"Cc1ccc(C(=O)Nc2cc(-c3nn(CCCN4CCN(c5cccc(Cl)c5)CC4)c4c3CN(S(C)(=O)=O)CC4)ccc2Cl)cc1 [Example 198, N-[2-Chloro-5-(1-{3-[4-(3-chloro-phenyl)-piperazin-1-yl]-propyl}-5-methanesulfonyl-4,5,6,7-tetrahydro-1H-pyrazolo[4,3-c]pyridin-3-yl)-phenyl]-4-methyl-benzamide]"
9,0.37 µM,"CC(C)c1cccc(NCc2cc(-c3nn(CCCN4CCC(N5CCCC5=O)CC4)c4c3CN(S(C)(=O)=O)CC4)ccc2Cl)c1 [Example 211, 1-{1-[3-(3-{4-Chloro-3-[(3-isopropyl-phenylamino)-methyl]-phenyl}-5-methanesulfonyl-4,5,6,7-tetrahydro-pyrazolo[4,3-c]pyridin-1-yl)-propyl]-piperidin-4-yl}-pyrrolidin-2-one]"
10,0.28 µM,"Cc1ccc(NCc2cc(-c3nn(CCCN4CCC(N5CCCC5=O)CC4)c4c3CN(S(C)(=O)=O)CC4)ccc2Cl)cc1 [Example 208, 1-[1-(3-{3-[4-Chloro-3-(p-tolylamino-methyl)-phenyl]-5-methanesulfonyl-4,5,6,7-tetrahydro-pyrazolo[4,3-c]pyridin-1-yl}-propyl)-piperidin-4-yl]-pyrrolidin-2-one]"
